From patent US20190375787A1, “PEPTIDOMIMETICS AND THEIR USE IN THERAPY” (INSTYTUT […]. Z O.O., priority 2016, published 2019)
Square brackets hold non-standard residues; d marks the D form. Peptide text beside a SMILES is read from it. * marks the point of attachment. X1 = C(=Cc1ccccc1)CN1CCN(*)CC1

How the values were obtained:
Format in all cases: cell-based
[1] = tested on: SW620 (intestinal cancer); experiment: Cell growth, colorimetric MTT or XTT, SW620
Protocol: (§1) Influence of the compounds on the cell growth was evaluated by colorimetric method, using MTT or XTT reagent, values of IC50 were determined. The tests were based on reduction of the salt by mitochondrial dehydrogenase from metabolically active cells. The colored product of the reaction was determined colorimetrically, and in result the number of living cells was assigned.

[2] = tested on: Colo205 (intestinal cancer) cells; experiment: Inhibition of cell migration (transwell insert), Colo205; details: Colo205, IC50 concentration, concentrations below 400 μM
Protocol: (§2) Inhibition of cell migration was evaluated using 24-well plates with PET (polyethylene terephthalate) membrane transwell insert. The experiment was performed using IC50 concentrations of the tested compounds, and migration of the cells, that means, the number of the cells passing through the membrane to the bottom side of the membrane, was observed. The cells which passed the membrane, were stained with crystal violet and counted.

[3] = tested on: SW480 (intestinal cancer) cells; experiment: Inhibition of cell migration (transwell insert), SW480; details: SW480, IC50 concentration
Protocol: as §2

[4] = tested on: SW620 (intestinal cancer) cells; experiment: Inhibition of cell migration (transwell insert), SW620; details: SW620, IC50 concentration
Protocol: as §2

[5] = tested on: HT29 (intestinal cancer) cells; experiment: Inhibition of cell migration (transwell insert), HT29; details: HT29, IC50 concentration, concentrations below 400 μM
Protocol: as §2

[6] = tested on: human pancreatic cancer cell line CFPAC-1; experiment: MTS cell viability test on CFPAC-1 cells; details: 24 h incubation; for activity (cell viability) compared with gem and 5FU: CFPAC-1, concentrations 0.01-0.1 mM; for activity relative to the reference drugs (gem, 5FU): CFPAC-1, higher concentrations (above 0.1 mM)
Text: Phenylalanyl-trans-1-cinnamylpiperazine was acylated with t-Boc-Tyr-D-Ala using TBTU/DIPEA methodology. The reaction product was precipitated with 10% NaHCO3 and separated from the reaction mixture by filtration. The solid was washed three times with water, until neutral pH of the filtrate was reached. The t-butyloxycarbonyl group was removed using TFA:DCM (1:1). The crude product was purified by preparative HPLC in a gradient of water/methanol with addition of 0.1% trifluoroacetic acid. The counterion was changed to Cl^− using the Dowex ion-exchange resin. The purified product, tyrosyl-D-alanyl-phenylalanyl-cinnamylpiperazine hydrochloride (further called TyrDAlaPheCyn) was tested on human pancreatic cancer cell line CFPAC-1, in comparison to commercial drugs, gemcitabine (gem) and 5-fluorouracil (5FU). The cells were grown on IMDM medium supplemented with 10% (v/v h.i. FBS, 2 mM L-glutamine and 1% (v/v) penicillin-streptomycin, in 37° C., in humidified atmosphere, with 5% CO2. The cells were seeded in 96 wells plate (3×10^3 cells per well) and incubated for 24 h (37° C., 5% CO2) in the culture medium. Next, TyrDAlaPheCyn, gem and 5FU in 5% DMSO solutions were added, to give in wells concentrations 0 (5% DMSO); 0.01; 0.05; 0.1; 0.5; and 1 mM. The plates were incubated for 24 h (37° C., 5% CO2). Cell viability was determined using colorimetric test MTS (3-(4,5-dimethylthiazol-2-yl)-5-(3-carboxymethoxyphenyl)-2-(4-sulfophenyl)-2H-tetrazolium). To each well, 20 μl of the reagent was added, and the plates were incubated in the same conditions for 1 h. The absorbance intensity at 490 nm was read. […] However, at higher concentrations, activity of the tested compound was even 4 times higher than for the reference drugs.
Tryptophyl-trans-1-cinnamylpiperazine was acylated with t-Boc-Tyr-D-Ala using TBTU/DIPEA methodology. The reaction product was precipitated with 10% NaHCO3 and separated from the reaction mixture by filtration. The solid was washed three times with water, until neutral pH of the filtrate was reached. The t-butyloxycarbonyl group was removed using TFA:DCM (1:1). […] The cells were grown on DMDM medium supplemented with 10% (v/v h.i. FBS, 2 mM L-glutamine and 1% (v/v) penicillin-streptomycin, in 37° C., in humidified atmosphere, with 5% CO2. The cells were seeded in 96 wells plate (3×10^3 cells per well) and incubated for 24 h (37° C., 5% CO2) in the culture medium. Next, TyrDAlaTrpCyn, gem and 5FU in 5% DMSO solutions were added, to assure in wells concentrations 0 (5% DMSO); 0.01; 0.05; 0.1; 0.5; and 1 mM. The plates were incubated for 24 h (37° C., 5% CO2). Cell viability was determined using colorimetric test MTS (3-(4,5-dimethylthiazol-2-yl)-5-(3-carboxymethoxyphenyl)-2-(4-sulfophenyl)-2H-tetrazolium). […] The absorbance intensity at 490 nm was read. […]

[7] = tested on: Colo205 (intestinal cancer); experiment: Cell growth, colorimetric MTT or XTT, Colo205
Protocol: as §1

HT29 (intestinal cancer) = experiment: Cell growth, colorimetric MTT or XTT, HT29
Protocol: as §1

| Structure (SMILES) | IC50 [1] | inhibition of cell migration [2] | inhibition of cell migration ([3]; concentrations below 400 μM) | inhibition of cell migration [5] | activity (cell viability) compared with gem and 5FU [6] | activity relative to the reference drugs (gem, 5FU) [6] | further results |
| --- | --- | --- | --- | --- | --- | --- | --- |
| C[C@@H](NC(=O)[C@@H](N)Cc1ccc(O)cc1)C(=O)NCC(=O)N[C@@H](Cc1ccccc1)C(=O)N1CCN(CC=Cc2ccccc2)CC1.Cl [TyrDAlaGlyPheCyn, tyrosyl-D-alanyl-glicyl-phenylalanyl-1-cinnamylpiperazine hydrochloride] | < 450 µM | ≤ 60% | ≤ 60% | ≤ 70% |  |  | inhibition of cell migration ([4]; concentrations below 450 μM): ≤ 40% |
| C[C@@H](NC(=O)[C@@H](N)Cc1ccc(O)cc1)C(=O)NCC(=O)N[C@@H](Cc1c[nH]c2ccccc12)C(=O)N1CCN(CC=Cc2ccccc2)CC1.Cl [TyrDAlaGlyTrpCyn, tyrosyl-D-alanyl-glicyl-tryptophyl-1-cinnamylpiperazine hydrochloride] (H-Y[dA]GW-X1) | < 500 µM | ≤ 40% | ≤ 30% | ≤ 50% |  |  | inhibition of cell migration ([4]; concentrations below 500 μM): ≤ 30% |
| C[C@@H](NC(=O)[C@@H](N)Cc1ccc(O)cc1)C(=O)N[C@@H](Cc1ccccc1)C(=O)N1CCN(CC=Cc2ccccc2)CC1.Cl [TyrDAlaPheCyn, tyrosyl-D-alanyl-phenylalanyl-cinnamylpiperazine hydrochloride] |  |  |  |  | similar | 4 times |  |
| C[C@@H](NC(=O)[C@@H](N)Cc1ccc(O)cc1)C(=O)N[C@@H](Cc1c[nH]c2ccccc12)C(=O)N1CCN(CC=Cc2ccccc2)CC1.Cl [TyrDAlaTrpCyn, tyrosyl-D-alanyl-tryptophyl-cinnamylpiperazine hydrochloride] |  |  |  |  | similar | 4 times |  |
| C[C@H](O)[C@@H](NC(=O)[C@@H](N)Cc1ccc(O)cc1)C(=O)NCC(=O)N[C@@H](Cc1ccccc1)C(=O)N1CCN(CC=Cc2ccccc2)CC1.Cl [TyrDThrGlyPheCyn, tyrosyl-D-threonyl-glicyl-phenylalanyl-1-cinnamylpiperazine hydrochloride] (H-Y[dT]GF-X1) | < 650 µM |  |  |  |  |  | inhibition of cell migration ([3]; concentrations below 500 μM): ≤ 45% |
| C[C@H](O)[C@@H](NC(=O)[C@@H](N)Cc1ccc(O)cc1)C(=O)NCC(=O)N[C@@H](Cc1c[nH]c2ccccc12)C(=O)N1CCN(CC=Cc2ccccc2)CC1.Cl [TyrDThrGlyTrpCyn, tyrosyl-D-threonyl-glicyl-tryptophyl-1-cinnamylpiperazine hydrochloride] (H-Y[dT]GW-X1) | < 600 µM |  |  |  |  |  | IC50 [7]: < 650 µM; inhibition of cell migration ([3]; concentrations below 600 μM): ≤ 40%; IC50 (HT29 (intestinal cancer)): < 600 µM; inhibition of cell migration ([4]; concentrations below 600 μM): ≤ 30% |
